Source: patent publication US12239647B2, “ALS treatment using induced regulatory T (iTREG) cells” (RAPA THERAPEUTICS, LLC, priority 2018, dated 2025)

What was measured:
[1] = system: peripheral blood mononuclear cells from an ALS patient; assay: TCR repertoire profiling by RNA sequencing pre- and post-therapy with etanercept; format: in vivo, human
Excerpt: (§1) FIGS. 23A & 23B depict the use of RNA-based T cell receptor sequencing to detect a widespread up- and down-regulation of T cell TCR specificities after therapy with the TNF-α inhibitor, etanercept. In FIG. 23, RNA was isolated from peripheral blood mononuclear cells from an ALS patient pre- and post-therapy with etanercept therapy. The RNA was subjected to TCR repertoire profiling, as previously described by Rosati E, Dowds C M, Liaskou E, Henriksen E K K, Karlsen T H, Franke A. Overview of methodologies for T-cell receptor repertoire analysis. BMC Biotechnol. 2017; 17(1): 61.
as §1, with “36A-36B” for “23A & 23B”, “depict” for “depict the”, “FIGS. 36A-36B,” for “FIG. 23,”

[2] = system: human CD4+ and CD8+ T cells; assay: Expansion of de-differentiated T cells in Th1, TREG or hybrid Th2/TREG polarization with or without pemetrexed; format: cell-based
Procedure: FIG. 13 depicts favorable expansion of de-differentiated T cells in hybrid Th2/TREG polarization condition relative to Th1 polarization condition. Human CD4^+ and CD8^+ T cells were subjected to a 3-day de-differentiation procedure (“STEP 1”). […] In addition, the T cell culture in the presence of the variable polarization conditions was performed without the novel inhibitory molecule, pemetrexed (“0”) or in the presence of variable concentrations of pemetrexed, as indicated (10 nM [“10”]; 33 nM [“33”]; or 100 nM [“100”]. After a total of 10 days of culture, the n=24 cultures were harvested and live cells were enumerated and graphed above (y-axis indicated number of cells×10^6; input cell number was 1.5×10^6 cells).

[3] = system: human CD4+ and CD8+ T cells; assay: Flow cytometry of FOXP3, Tbet and GATA3 in extended hybrid Th2/TREG culture with temsirolimus or pemetrexed; format: cell-based; conditions: hybrid polarization condition with pemetrexed 10 nM
Excerpt: To evaluate these transcription factors in our manufacturing method, T cells were first subjected to the step 1 de-differentiation procedure and then re-differentiated in the hybrid TREG-Th2 culture condition (IL-2, TGF-β, and IL-4). In addition, we compared the effects of pemetrexed with a classical mTOR inhibitor.
The iTREG phenotype is considered to be unstable; as such, we evaluated the stability of T cells re-differentiated using the hybrid TREG-Th2 culture condition at delayed time points, including days 20 and 32 of culture. In addition, to test phenotype stability in a rigorous manner, between day 24 and day 32 of culture, T cells received a high level of co-stimulation (3:1 bead-to-T cell ratio) and were propagated in media without cytokines or pharmacologic agents.
FIGS. 19A-19D illustrate that extended culture of de-differentiated T cells in the hybrid Th2/TREG polarization condition containing pemetrexed results in the generation of CD4^+ T cells expressing FOXP3 and GATA3 transcription factors. […] At days 12, 20, and 32 of culture, T cells were harvested and subjected to surface flow cytometry (CD4 marker) and intra-cellular staining for the following transcription factors, FOXP3, Tbet, and GATA3. The data above show the percent CD4 cells out of the total cultured population (FIG. 19A); the percent of CD4 cells that expressed the TREG transcription factor FOXP3 (FIG. 19B); the percent of CD4 cells that expressed the Th1 transcription factor Tbet (FIG. 19C); and the percent of CD4 cells that expressed the Th2 transcription factor GATA3 (FIG. 19D).
FIGS. 20A-20D illustrate that extended culture of de-differentiated T cells in the hybrid Th2/TREG polarization condition containing pemetrexed results in the generation of CD8^+ T cells expressing FOXP3 and GATA3 transcription factors. […] At days 12, 20, and 32 of culture, T cells were harvested and subjected to surface flow cytometry (CD8 marker) and intra-cellular staining for the following transcription factors, FOXP3, Tbet, and GATA3. […]

[4] = system: human CD4+ and CD8+ T cells; assay: Cytokine secretion (Luminex) in extended hybrid Th2/TREG culture with temsirolimus or pemetrexed; format: cell-based
Excerpt: (§2) FIGS. 21A-21D illustrates that extended culture of de-differentiated T cells in the hybrid Th2/TREG polarization condition results in the generation of T cells expressing with a predominant Th2 cytokine phenotype: IL-4, IL-5, and IL-13 secretion. […] At days 12, 20, and 32 of culture, the T cells were harvested, washed, and re-stimulated with 3/28 beads (3:1 ratio) for 24 hr; the resultant supernatant was harvested and tested for cytokine content by Luminex multi-analyte method. All results shown are expressed as cytokine level in pg per ml per 1×10^6 cells/ml/24 hr. The Th2 cytokine IL-10 was also evaluated: all values were less than 20 pg/ml per 1×10^6 cells/ml/24 hr.
as §2, with “22A-22D illustrate” for “21A-21D illustrates”, “IL-2, IFN-γ,” for “IL-4, IL-5,”, “GM-CSF” for “IL-13”, “inflammatory cytokines IL-17 and TNF-α were” for “Th2 cytokine IL-10 was”

[5] = system: human CD4+ and CD8+ T cells; assay: RNA expression of T cell effector molecules after 3-day de-differentiation culture (Luminex Quantigene); format: cell-based; conditions: 3-day culture, bead:T cell 1:3, temsirolimus 1 μM, Vitamin D 0.1 or 1.0 nM; relative to control Th1/Tc1 culture
Procedure: (§3) At the end of the de-differentiation interval, cells were harvested, RNA was isolated, and RNA expression analysis was performed by Luminex Quantigene method. All results shown represent relative RNA expression, with results normalized to a value of 1.0 for the Th1/Tc1 control culture.

[6] = system: human CD4+ and CD8+ T cells; assay: RNA expression of de-differentiation transcription factors and IL-7 receptor alpha after 3-day culture (Luminex Quantigene); format: cell-based; conditions: bead:T cell 1:3, temsirolimus 1 μM, relative to control culture
Procedure: as §3

[7] = system: human CD4+ and CD8+ T cells; assay: RNA expression of Th1 transcription factors and HIF-1-α after 3-day culture (Luminex Quantigene); format: cell-based; conditions: bead:T cell 1:3, temsirolimus 1 μM, Vitamin D 0.1 to 1.0 nM, relative to control culture
Procedure: as §3

[8] = system: human CD4+ and CD8+ T cells; assay: Western blot for autophagy-related molecule p62 after 3-day de-differentiation culture; format: cell-based; conditions: 3-day culture, bead:T cell 1:3; temsirolimus 1.0 or 0.3 μM, Vitamin D 0.01-1.0 nM, Daclizumab 50 μg/ml as indicated
Excerpt: The level of autophagy can be determined in-part by the subsequent up-regulation of the autophagy substrate, p62, by western blot analysis.
After the 3-day culture interval, the T cells were harvested, and protein was isolated and subjected to western blot analysis for the autophagy-related gene, p62, and the housekeeping gene, Actin.

[9] = system: human CD4+ and CD8+ T cells; assay: Western blot for mTORC1-related molecule Raptor after 3-day de-differentiation culture; format: cell-based
Excerpt: After the 3-day culture interval, the T cells were harvested, and protein was isolated and subjected to western blot analysis for the mTORC1 complex protein, Raptor, and the housekeeping gene, Actin.

[10] = system: human CD4+ and CD8+ T cells; assay: Western blot for Raptor, Rictor, p70S6K and SGK1 after 3-day de-differentiation culture; format: cell-based; conditions: combination agent de-differentiation: temsirolimus 1 μM, Vitamin D 0.03 to 1.0 nM, Daclizumab 50 μg/ml; relative to control culture
Excerpt: After the 3-day culture interval, the T cells were harvested, and protein was isolated and subjected to western blot analysis for the mTORC1 complex protein, Raptor; the mTORC2 complex protein, Rictor; the post-mTORC1 protein p70S6K; the post-mTORC2 protein, SGK1; and the housekeeping gene, GAPDH.

[11] = system: human CD4+ and CD8+ T cells; assay: T cell yield at day 13 after de-differentiation and re-stimulation without inhibitors; format: cell-based
Procedure: After 10 days (13 days of total culture), the T cells were harvested, enumerated, and evaluated by flow cytometry. FIG. 8 illustrates the effect of culture components during the de-differentiation interval on subsequent T cell yield (at day 13 of culture). […] After the 3-day interval, media was exchanged to fresh X-Vivo 20 without inhibitors, high-level co-stimulation was provided (3:1 bead-to-T cell ratio), and the T cell growth cytokines IL-2 (100 IU/ml) and IL-7 (10 ng/ml) were added. At day 13 of culture, viable T cells were enumerated and the overall yield is shown relative to day 0 input number.

[12] = system: human CD4+ and CD8+ T cells; assay: Cytokine secretion (Luminex) of de-differentiated T cells cultured in polarization-neutral media; format: cell-based; conditions: vitamin D 0.01 nM during de-differentiation relative to 0.1 nM
Procedure: FIGS. 11A-11D depict the inflammatory Th1/Th17 cytokine analysis of cultured de-differentiated T cells in polarization-neutral media. […] After 3-days, the de-differentiated T cells were co-stimulated (typical bead-to-T cell ratio of 3:1) in media supplemented with the T cell growth cytokines rhu IL-2 (100 IU/ml) and rhu IL-7 (10 ng/ml), which are not potent in terms of inducing T cell polarization. After 10 days in culture (total, day 13 of culture), the T cells were harvested, washed, and re-stimulated with 3/28 beads (3:1 ratio) for 24 hr; the resultant supernatant was harvested and tested for cytokine content by Luminex multi-analyte method. All results shown are expressed as cytokine level in pg per ml per 1×10^6 cells/ml/24 hr.
FIGS. 12A-12D depicts the IL-2 and Th2-type cytokine analysis of cultured de-differentiated T cells in polarization-neutral media. […] After 3-days, the de-differentiated T cells were co-stimulated (typical bead-to-T cell ratio of 3:1) in media supplemented with the T cell growth cytokines rhu IL-2 (100 IU/ml) and rhu IL-7 (10 ng/ml), which are not potent in terms of inducing T cell polarization. […] All results shown are expressed as cytokine level in pg per ml per 1×10^6 cells/ml/24 hr.

[13] = ALS patient, pre- versus post-therapy
[14] = several clones, pre- versus post-treatment
[15] = hybrid TREG-Th2 condition, temsirolimus 1.0 μM or pemetrexed 10 nM
[16] = Vitamin D 1.0 nM in combination

etanercept
TCR specificities down-regulated in the post-therapy sample [1, 13]: approximately 25%
TCR specificities up-regulated in the post-therapy sample [1, 13]: approximately 25%
T cell clonal contraction [1, 14]: more than 4 log
T cell clonal expansion [1, 14]: more than 4 log
post-treatment frequencies of contracted T cell clones ([1]; several clones, 259 to 598 pre-etanercept): 0.01

Nc1nc2[nH]cc(CCc3ccc(C(=O)N[C@@H](CCC(=O)O)C(=O)O)cc3)c2c(=O)[nH]1 [pemetrexed]
concentration for optimal T cell re-differentiation (numerical perspective) ([2]; TREG-Th2 hybrid polarization (IL-2, TGF-β, IL-4)): 10 nM
T cell number after re-differentiation in TREG-Th2 polarization condition ([2]; most stringent de-differentiation (temsirolimus, vitamin D, anti-IL-2 receptor antibody), pemetrexed 10 nM in step 2, 10 days): sufficient T cells
T cell number after re-differentiation in pure TREG polarizing condition (IL-2 plus TGF-β without IL-4) ([2]; most stringent de-differentiation, in the presence of pemetrexed (cultures #20 and #21)): unsuccessful
T cell yield after re-differentiation in Th1-type polarization ([2]; pemetrexed not added or 10 to 100 nM, input 1.5×10^6 cells): greatly limited ability to re-differentiate
percent of CD8 cells that expressed Tbet [3]: lowest levels
percent of CD4 cells that expressed Tbet ([3]; days 12, 20, 32): most consistently reduced TBET values
percent of CD4 cells that expressed GATA3 ([3]; end of culture): highest end-of-culture Th2-associated GATA3 expression
GM-CSF secretion ([4]; hybrid TREG-Th2 condition supplemented with pemetrexed 10 nM): higher degree
IL-5 secretion [4, 15]: fully preserved
IL-13 secretion [4, 15]: fully preserved

C=C1/C(=C\C=C2/CCC[C@]3(C)[C@@H]([C@H](C)CCCC(C)(C)O)CC[C@@H]23)C[C@@H](O)C[C@@H]1O [Vitamin D, Calcitriol]
Granzyme B RNA expression [5]: reduction
IFN-gamma RNA expression [5]: reduction
IL-10 RNA expression [5]: reduction
IL-7 receptor alpha RNA expression [6, 16]: not Vitamin D alone
KLF4 RNA expression [6, 16]: neither temsirolimus nor Vitamin D alone increased
KLF10 RNA expression [6, 16]: does not act alone to up-regulate
Nanog RNA expression ([6]; Vitamin D 0.1 or 1.0 nM): does not act alone to up-regulate
HIF-1-α RNA expression [7]: did not down-regulate
STAT1 RNA expression [7]: acts alone to beneficially down-regulate
T-BET RNA expression [7]: acts alone to beneficially down-regulate
p62 expression (western blot, autophagy marker) [8]: increased p62 expression
Raptor expression ([9]; Vitamin D 0.3 nM (culture 7), versus 0.1 nM): higher level of Raptor expression
Raptor inhibition ([9]; Vitamin D level reduced to 0.01 nM): sub-optimal Raptor inhibition
Rictor expression (western blot, FIG. 6) [10]: effective
T cell yield at day 13 of culture ([11]; Vitamin D concentration increased to 1.0 nM (column #6)): very low yield
T cell yield at day 13 of culture ([11]; Vitamin D concentration reduced to 0.01 nM (column #5)): very low yield
preferable concentration for T cell yield ([11]; de-differentiation interval): 0.1 nM
IFN-γ secretion [12]: somewhat higher levels
TNF-α secretion [12]: somewhat higher levels
